Like-named read-outs stand apart in the source and are kept apart here.
Tests used:
[1] = test system: Human colon tumor cells (Colo205); assay: Cell growth inhibition assay (CellTiter-Glo), Colo205; type: cell-based
Procedure, shortened: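 Growth is estimated from total cellular ATP measured by CellTiter-Glo luminescence after a 3-day compound exposure at 37 °C. Compounds are tested as 1:3 dilution series in 0.2% final DMSO, with inhibition expressed relative to vehicle-treated wells.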

[2] = test system: Human melanoma cancer cells (SK-MEL-28); assay: Cell growth inhibition assay (CellTiter-Glo), SK-MEL-28; type: cell-based
[3] = target: T1, BRAFV600E full-length (amino acids 2-766) (Homo sapiens, UniProt P15056, V600E); assay: B-Raf Accelerated MEK ATPase assay (BRAMA); type: biochemical; settings: categorized
T1 construct: His6-tagged BRAFV600E full-length (amino acids 2-766); His6; made in house; host or cells: baculovirus expression system (insect cells)
T1 sequence (P15056 2-766 V600E): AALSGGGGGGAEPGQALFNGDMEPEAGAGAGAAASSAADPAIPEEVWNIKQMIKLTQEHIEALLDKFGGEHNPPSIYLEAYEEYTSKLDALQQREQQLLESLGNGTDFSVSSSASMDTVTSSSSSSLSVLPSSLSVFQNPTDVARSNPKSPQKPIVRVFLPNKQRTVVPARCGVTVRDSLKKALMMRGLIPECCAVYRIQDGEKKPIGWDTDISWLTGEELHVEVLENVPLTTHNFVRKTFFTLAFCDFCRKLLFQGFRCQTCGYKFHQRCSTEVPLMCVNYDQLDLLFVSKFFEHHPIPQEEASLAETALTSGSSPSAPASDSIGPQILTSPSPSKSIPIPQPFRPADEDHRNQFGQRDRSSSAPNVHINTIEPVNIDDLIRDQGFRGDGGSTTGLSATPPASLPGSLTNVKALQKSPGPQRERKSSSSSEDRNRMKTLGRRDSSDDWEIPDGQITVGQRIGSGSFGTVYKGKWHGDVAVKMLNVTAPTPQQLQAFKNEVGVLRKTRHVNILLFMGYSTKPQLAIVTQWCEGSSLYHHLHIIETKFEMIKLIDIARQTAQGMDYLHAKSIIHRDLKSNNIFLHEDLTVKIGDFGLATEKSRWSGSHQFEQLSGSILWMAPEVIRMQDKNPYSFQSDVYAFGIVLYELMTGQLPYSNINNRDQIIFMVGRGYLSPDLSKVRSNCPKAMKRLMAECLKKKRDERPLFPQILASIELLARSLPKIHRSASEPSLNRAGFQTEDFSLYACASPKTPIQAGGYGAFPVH
Procedure, shortened: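 Coupled-enzyme readout: ADP generated by MEK-mediated ATP hydrolysis, uncoupled from ERK phosphorylation, is linked to NADH oxidation through pyruvate kinase and lactate dehydrogenase.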

[4] = COLO 205, 72 h, Table 2a, 3 days incubation, read-out: Activity in Colo205 Tumor Cells
[5] = COLO 205, Table 2b, later runs, average for the one or more runs, categorized, read-out: IC50 for Colo205
[6] = SK-MEL-28, 72 h, Table 3a, 3 days incubation, read-out: Activity in SK-MEL-28 Tumor Cells
[7] = SK-MEL-28, Table 3b, later runs, average for the one or more runs, categorized, read-out: IC50 for SK-MEL-28
[8] = B-Raf Activity, Table 1a, highest pIC50 for the one or more runs
[9] = Table 1b, later runs, average pIC50 for the one or more runs, read-out: B-Raf pIC50 (converted)
[10] = B-Raf pIC50, Table 1b, later runs, average pIC50 for the one or more runs

| SMILES | IC50 [1, 4] [µM] | IC50 [1, 5] [µM] | IC50 [2, 6] [µM] | IC50 [2, 7] [µM] | IC50 [3, 8] [µM] | IC50 [3, 9] [µM] | IC50 [3, 10] [µM] |
| --- | --- | --- | --- | --- | --- | --- | --- |
| CS(=O)(=O)N[C@H]1CC[C@H](Nc2nccc(-c3sc(N4CCCC4)nc3-c3cccc(NS(=O)(=O)c4c(F)cccc4F)c3)n2)CC1 [Example 17, 2,6-Difluoro-N-{3-[5-[2-({trans-4-[(methylsulfonyl)amino]cyclohexyl}amino)-4-pyrimidinyl]-2-(1-pyrrolidinyl)-1,3-thiazol-4-yl]phenyl}benzenesulfonamide] | < 0.1 | < 0.1 | < 0.1 | < 0.1 | < 0.1 | 0.00316 to 0.0316 |  |
| CCOCCNc1nccc(-c2sc(C(C)(C)C)nc2-c2cccc(NS(=O)(=O)c3cc(F)ccc3F)c2F)n1 [Example 212] | < 0.1 | < 0.1 | < 0.1 | < 0.1 | < 0.1 |  | ≤ 0.00316 |
| Nc1nccc(-c2sc(C3CCCCC3)nc2-c2cccc(NS(=O)(=O)c3c(F)cccc3F)c2F)n1 [Example 104, N-{3-[5-(2-Amino-4-pyrimidinyl)-2-cyclohexyl-1,3-thiazol-4-yl]-2-fluorophenyl}-2,6-difluorobenzenesulfonamide] | < 0.1 | < 0.1 | < 0.1 | < 0.1 | < 0.1 |  | ≤ 0.00316 |
| Nc1nccc(-c2sc(C3CCC3)nc2-c2cccc(NS(=O)(=O)c3cc(F)ccc3F)c2F)n1 [Example 117] | < 0.1 | < 0.1 | < 0.1 | < 0.1 | < 0.1 |  | ≤ 0.00316 |
| Nc1nccc(-c2sc(N3CCOCC3)nc2-c2cccc(NS(=O)(=O)c3cc(F)ccc3F)c2)n1 [Example 200] | 0.1 to 1 | 0.1 to 1 | 0.1 to 1 | 0.1 to 1 | < 0.1 | 0.00316 to 0.0316 |  |
| CC(C)CNc1nccc(-c2sc(C(C)(C)C)nc2-c2ccc(F)c(NS(=O)(=O)c3c(F)cccc3F)c2)n1 [Example 46, N-[5-(2-(1,1-Dimethylethyl)-5-{2-[(2-methylpropyl)amino]-4-pyrimidinyl}-1,3-thiazol-4-yl)-2-fluorophenyl]-2,6-difluorobenzenesulfonamide] | 0.1 to 1 | 0.1 to 1 | 0.1 to 1 | 0.1 to 1 | < 0.1 | 0.00316 to 0.0316 |  |
| Nc1nccc(-c2sc(C3CCC3)nc2-c2cccc(NS(=O)(=O)c3c(F)cccc3F)c2Cl)n1 [Example 72, N-{3-[5-(2-Amino-4-pyrimidinyl)-2-cyclobutyl-1,3-thiazol-4-yl]-2-chlorophenyl}-2,6-difluorobenzenesulfonamide] | 0.1 to 1 | 0.1 to 1 | < 0.1 | < 0.1 | < 0.1 |  | ≤ 0.00316 |
| CC(C)c1nc(-c2ccc(F)c(NS(=O)(=O)c3cc(F)ccc3F)c2)c(-c2ccnc(NC3CCN(S(C)(=O)=O)CC3)n2)s1 [Example 75, 2,5-Difluoro-N-{2-fluoro-5-[2-(1-methylethyl)-5-(2-{[1-(methylsulfonyl)-4-piperidinyl]amino}-4-pyrimidinyl)-1,3-thiazol-4-yl]phenyl}benzenesulfonamide] | < 0.1 | < 0.1 | < 0.1 | < 0.1 | < 0.1 |  | ≤ 0.00316 |
| CCNc1nccc(-c2sc(C(C)C)nc2-c2ccc(F)c(NS(=O)(=O)c3c(F)cccc3F)c2)n1 [Example 9, N-{5-[5-[2-(Ethylamino)-4-pyrimidinyl]-2-(1-methylethyl)-1,3-thiazol-4-yl]-2-fluorophenyl}-2,6-difluorobenzenesulfonamide] | > 1 | 1 to 10 | > 1 | 1 to 10 | 0.1 to 1 |  | 0.0316 to 1 |
| CC(C)(C)c1nc(-c2cccc(NS(=O)(=O)c3ccoc3)c2Cl)c(-c2ccnc(N)n2)s1 [Example 264, N-{3-[5-(2-amino-4-pyrimidinyl)-2-(1,1-dimethylethyl)-1,3-thiazol-4-yl]-2-chlorophenyl}-3-furansulfonamide] |  | < 0.1 |  | < 0.1 |  |  | ≤ 0.00316 |
| CC(C)c1nc(-c2ccc(F)c(NS(=O)(=O)c3cc(F)ccc3F)c2)c(-c2ccnc(NC3CCNCC3)n2)s1 [Example 125] | 0.1 to 1 | 0.1 to 1 | 0.1 to 1 | 0.1 to 1 | < 0.1 | 0.00316 to 0.0316 |  |
| O=S(=O)(Nc1cccc(-c2nc(N3CCOCC3)sc2-c2ccnc(NCC3CCCO3)n2)c1F)c1cc(F)ccc1F (stereo not drawn) [Example 209] | < 0.1 | < 0.1 | < 0.1 | < 0.1 | < 0.1 |  | ≤ 0.00316 |

Reference: patent publication US7994185B2, “Benzene sulfonamide thiazole and oxazole compounds” (Glaxo Smith Kline LLC, priority 2008, dated 2011)
